System: HT29 cells
Assay: Flow cytometry cell cycle profiles, HT29
Type: cell-based, human
Settings: for abrogation of DNA damage induced cell cycle arrest: DNA damaging agent 16 hours, then PF-477736 (400 nM) or VX680 (400 nM) 48 hours
Description: Fixed cells were analyzed by flow cytometry.
All cells were harvested, fixed in 70% ethanol and stained with propidium iodide/RNase A. Cell cycle profiles were examined by flow cytometry using a FACSArray cytometer (BD) and FACSDiva software (BD).

Compound | cells remaining arrested in G2 or M (100 nM paclitaxel 18 hours, then 24 hours with 200 nM VER-150548 or 400 nM VX680 (DMSO 65.4%)) | abrogation of DNA damage induced cell cycle arrest | cell cycle effect as single agent (unperturbed cells, 8 to 48 hours)
Cc1cc(Nc2cc(N3CCN(C)CC3)nc(Sc3ccc(NC(=O)C4CC4)cc3)n2)[nH]n1 [VX680] | 28.5% | unable to override the DNA damage induced arrest | caused G2/M arrest at early time points and subsequent reduplication following extended incubation
Cn1cc(-c2[nH]c3cc(NC(=O)[C@H](N)C4CCCCC4)cc4c3c2C=NNC4=O)cn1 [PF-477736] | – | abrogated DNA damage induced cell cycle arrest | –
